Consider 3 compounds from patent US20080058324A1, “Alpha-Keto Carbonyl Calpain Inhibitors” (SANTHERA PHARMACEUTICALS (SCHWEIZ) AG, priority 2004, published 2008).

The IC50 is the concentration needed to halve the response being measured. Broadly, the melting point is the temperature, or range, at which the solid turns liquid.

In one data set the target is T1, human μ-calpain (Homo sapiens, UniProt P07384).
T1 construct: purchased Calbiochem
T1 sequence (P07384 1-714): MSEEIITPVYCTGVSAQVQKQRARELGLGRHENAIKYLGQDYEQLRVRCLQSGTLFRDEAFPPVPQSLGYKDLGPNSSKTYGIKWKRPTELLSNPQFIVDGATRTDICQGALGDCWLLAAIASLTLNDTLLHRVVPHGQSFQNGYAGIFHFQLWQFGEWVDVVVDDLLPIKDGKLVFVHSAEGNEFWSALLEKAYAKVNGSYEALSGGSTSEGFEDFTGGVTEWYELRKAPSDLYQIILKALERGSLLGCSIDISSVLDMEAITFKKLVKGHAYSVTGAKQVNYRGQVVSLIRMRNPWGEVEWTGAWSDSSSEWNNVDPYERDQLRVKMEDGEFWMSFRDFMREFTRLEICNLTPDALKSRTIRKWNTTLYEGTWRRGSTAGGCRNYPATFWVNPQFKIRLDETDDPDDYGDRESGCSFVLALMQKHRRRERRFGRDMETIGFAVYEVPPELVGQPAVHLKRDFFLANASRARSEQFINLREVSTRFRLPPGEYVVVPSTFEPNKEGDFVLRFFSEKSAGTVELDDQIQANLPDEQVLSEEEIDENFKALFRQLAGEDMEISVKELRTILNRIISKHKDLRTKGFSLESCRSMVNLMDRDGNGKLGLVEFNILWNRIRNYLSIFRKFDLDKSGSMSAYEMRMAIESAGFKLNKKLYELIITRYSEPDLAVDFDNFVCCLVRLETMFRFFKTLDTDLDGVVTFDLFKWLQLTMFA
T1 sequence (P04632 1-268 partner): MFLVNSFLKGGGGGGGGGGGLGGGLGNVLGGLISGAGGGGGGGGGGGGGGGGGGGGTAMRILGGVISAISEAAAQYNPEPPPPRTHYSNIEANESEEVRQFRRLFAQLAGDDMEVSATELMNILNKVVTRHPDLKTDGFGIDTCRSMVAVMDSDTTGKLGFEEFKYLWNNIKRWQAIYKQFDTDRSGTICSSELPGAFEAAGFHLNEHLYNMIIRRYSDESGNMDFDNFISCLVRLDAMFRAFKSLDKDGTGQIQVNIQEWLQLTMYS
Kind of data set: Enzymatic Calpain Inhibition Assay. It counts as biochemical. The settings on record: read-out: Calp I IC50. As for the experimental part:
The Ki value was also determined in some cases. These criteria were used to measure the inhibitory effect of the compounds (I) on calpain I, calpain II and cathepsin B.
The inhibitory properties of calpain inhibitors are tested in 100 μl of a buffer containing 100 mM imidazole pH 7.5, 5 mM L-Cystein-HCl, 5 mM CaCl2, 250 μM of the calpain fluorogenic substrate Suc-Leu-Tyr-AMC (Sigma) (Sasaki et al., J. Biol. Chem., 1984, 259, 12489-12949) dissolved in 2.5 μl DMSO and 0.5 μg of human μ-calpain (Calbiochem). The inhibitors dissolved in 1 μl DMSO are added to the reaction buffer. The fluorescence of the cleavage product 7-amino-4-methylcoumarin (AMC) is followed in a SPECTRAmax GEMINI XS (Molecular Device) fluorimeter at λex=360 nm and λem=440 nm at 30° C. during 30 min at intervals of 30 sec in 96-well plates (Greiner). The initial reaction velocity at different inhibitor concentrations is plotted against the inhibitor concentration and the IC50 values determined graphically.

The next data set relates to mdx mouse. Description: mdx mouse model for Duchenne Muscular Dystrophy, longterm treatment. In kind it is in vivo. The settings on record: mdx mice, 4 weeks; for adverse effects upon longterm treatment: 20 mg/kg every 2nd day. As for the experimental part:
The mdx mouse is a well established animal model for Duchenne Muscular Dystrophy (Bulfield G., Siller W. G., Wight P. A., Moore K. J., X chromosome-linked muscular dystrophy (mdx) in the mouse, Proc. Natl. Acad. Sci. USA., 1984, 81(4), 1189-1192). Selected compounds were tested in longterm treatments of mdx mice, according to the procedures described below.
Mouse strains: C57BL/10scsn and C57BL/10scsn mdx mouse strains were purchased at The Jackson Laboratory (ME, USA) and bred inhouse. Mouse males were sacrificed at the age of 3 or 7 weeks by CO2 asphyxiation.
Treatment: Compounds were dissolved in 50% PEG, 50% saline solution and applied by i.p. injection.
Histology: Tibialis anterior (TA), quadriceps (Quad), and diaphragm (Dia) muscles were collected and mounted on cork supports using gum tragacanth (Sigma-Aldrich, Germany). The samples were snap-frozen in melting isopentane and stored at −80° C. 12 μm thick cryosections of the mid-belly region of muscles were prepared. For staining, sections were air dried and fixed with 4% PFA in PBS for 5 minutes, washed 3 times with PBS and incubated over night at 4° C. in PBS containing 2 μg/ml Alexa Fluor™ 488 conjugated wheat-germ agglutinin (WGA-Alexa, Molecular Probes, Eugen, Oreg., USA) to stain membrane-bound and extracellular epitopes and 1 μg/ml 4′,6-diamidino-2-phenylindole (DAPI; Molecular Probes) to stain nuclei.
Image acquisition and analysis: Fluorescence microscopy images of both labels were acquired using a digital camera (ColorView II, Soft Imaging System, Müinster, Germany) coupled to a fluorescence microscope (Vanox S, Olympus, Tokyo, Japan). Combination of these two stainings to a composite image, assembling of several images to a complete image of the entire muscle cross-section and further semi-automated analysis was performed using the image analysis program AnalySIS (Soft Imaging System). Image analysis of 1200-2900 muscle fibers in each section was performed in three steps: 1) determination of the muscle fiber boundaries, 2) determination of the muscle fiber size, and 3) determination of the percentage of muscle fibers containing centralized nuclei. Six different geometrical parameters were tested for the determination of the muscle fiber size: (a) the “minimal feret” (the minimum distance of parallel tangents at opposing borders of the muscle fiber), (b) the “area”, (c) the “minimal inner diameter” (the minimum diameter through the center of the muscle fiber), (d) the “minimal diameter” (the minimum diameter of a muscle fiber for angles in the range 0° through 179° with step width 1°, (e) the “minimal outer diameter” (the minimum diameter through the muscle fiber from outer border to outer border), and (f) the “perimeter”. The variance coefficient of the muscle fiber size is defined as follows: variance coefficient=(standard deviation of the muscle fiber size/mean of the muscle fiber size of the section)*[…]. For statistical analysis of different variance coefficient values Mann-Whitney U test was used.
Selected Examples of the present invention were active in the mdx mouse model at 20 mg/kg every 2nd day, using 3 week old mice and a treatment period of 4 weeks (N=5-10).

Setting [1] is: 20 mg/kg every 2nd day i.p., diaphragm, vs vehicle-treated mdx mice.
Where [2] appears, read: 20 mg/kg every 2nd day i.p., tibialis anterior, vs vehicle-treated mdx mice.

For `CCNC(=O)C(=O)[C@H](Cc1ccc(Cl)cc1)NC(=O)[C@@H](NC(=O)[C@H](Cc1ccccc1)NC(=O)CCCCc1cccs1)C(C)C` [Example 1], the IC50 at human μ-calpain turned out to be 45 nM. Further, in the data set with mdx mouse (setting [1]), the “decrease in the variance coefficient of the muscle fiber size, Dia” value was 26%. Further, in the data set on mdx mouse (setting [2]), the “decrease in the variance coefficient of the muscle fiber size, TA” value worked out at 26% and the “reduction of the percentage of centralized nuclei, TA” value is 17%. In addition, the “adverse effects upon longterm treatment” value with mdx mouse is “No prominent adverse effects”.
For `CCNC(=O)C(=O)C(Cc1ccc(OC)cc1)NC(=O)C(NC(=O)C(CCc1ccccc1)NC(=O)CCc1cccs1)C(C)C` (centres unmarked) [Example 520], the melting point lay in the range of 238 to 240 °C. In addition, the 50% inhibitory concentration (IC50) at human μ-calpain turned out to be 15 nM. Moreover, in the data set on mdx mouse (setting [1]), the “decrease in the variance coefficient of the muscle fiber size, Dia” value is 40% and the “reduction of the percentage of centralized nuclei, Dia” value worked out at 26%. Further, the “decrease in the variance coefficient of the muscle fiber size, Quad” value with mdx mouse (20 mg/kg every 2nd day i.p., quadriceps, vs vehicle-treated mdx mice) is 31%. The “reduction of the percentage of centralized nuclei, TA” value in the data set on mdx mouse (setting [2]) was determined as 13%. Besides, the “adverse effects upon longterm treatment” value in the data set with mdx mouse is given as “No prominent adverse effects”.
`CCNC(=O)C(=O)C(Cc1ccc(Cl)cc1)NC(=O)C(NC(=O)C(Cc1cccc2ccccc12)NC(=O)CCCCc1cccs1)C(C)C` (centres unmarked) [Example 22]: the melting point is 238 to 241 °C. The 50% inhibitory concentration (IC50) at human μ-calpain came to 300 nM.
